Measured values from ChEMBL document CHEMBL4507260 (2021).

Legend:
Conditions in all cases: Compound concentration 1000.0 nM
[1] = molecular target: SRSF protein kinase 1 (Homo sapiens) (UniProt Q96SB4)
[2] = molecular target: Phosphatidylinositol 3-kinase catalytic subunit type 3 (Homo sapiens) (UniProt Q8NEB9)
[3] = molecular target: Ribosomal protein S6 kinase alpha-4 (Homo sapiens) (UniProt O75676)
[4] = molecular target: Maternal embryonic leucine zipper kinase (Homo sapiens) (UniProt Q14680)
[5] = molecular target: Uncharacterized serine/threonine-protein kinase SBK3 (Homo sapiens) (UniProt P0C264)
[6] = molecular target: Membrane-associated tyrosine- and threonine-specific cdc2-inhibitory kinase (Homo sapiens) (UniProt Q99640)
[7] = molecular target: Activated CDC42 kinase 1 (Homo sapiens) (UniProt Q07912)
[8] = molecular target: Dual specificity mitogen-activated protein kinase kinase 6 (Homo sapiens) (UniProt P52564)
[9] = molecular target: Phosphatidylinositol 3-kinase C2 domain-containing subunit gamma (Homo sapiens) (UniProt O75747)
[10] = test system: Epidermal growth factor receptor (Homo sapiens), P00533 [L861Q]
[11] = molecular target: Serine/threonine-protein kinase PRP4 homolog (Homo sapiens) (UniProt Q13523)
[12] = molecular target: Interleukin-1 receptor-associated kinase 4 (Homo sapiens) (UniProt Q9NWZ3)
[13] = molecular target: Receptor tyrosine-protein kinase erbB-3 (Homo sapiens) (UniProt P21860)
[14] = molecular target: Calcium/calmodulin-dependent protein kinase type 1 (Homo sapiens) (UniProt Q14012)
[15] = test system: Epidermal growth factor receptor (Homo sapiens), P00533 [UNDEFINED MUTATION]
[16] = molecular target: Mitogen-activated protein kinase 4 (Homo sapiens) (UniProt P31152)
[17] = test system: Phosphatidylinositol 4,5-bisphosphate 3-kinase catalytic subunit alpha isoform (Homo sapiens), P42336 [M1043I]
[18] = molecular target: Serine/threonine-protein kinase VRK2 (Homo sapiens) (UniProt Q86Y07)
[19] = molecular target: Serine/threonine-protein kinase WNK3 (Homo sapiens) (UniProt Q9BYP7)
[20] = molecular target: Serine/threonine-protein kinase STK11 (Homo sapiens) (UniProt Q15831)
[21] = molecular target: Homeodomain-interacting protein kinase 4 (Homo sapiens) (UniProt Q8NE63)
[22] = molecular target: Dual specificity tyrosine-phosphorylation-regulated kinase 1A (Homo sapiens) (UniProt Q13627)
[23] = molecular target: Serine/threonine-protein kinase SIK1 (Homo sapiens) (UniProt P57059)
[24] = test system: Tyrosine-protein kinase ABL1 (Homo sapiens), P00519 [Y253F]
[25] = molecular target: Phosphatidylinositol 4,5-bisphosphate 3-kinase catalytic subunit alpha isoform (Homo sapiens) (UniProt P42336)
[26] = molecular target: Serine/threonine-protein kinase RIO3 (Homo sapiens) (UniProt O14730)
[27] = molecular target: Beta-adrenergic receptor kinase 1 (Homo sapiens) (UniProt P25098)
[28] = molecular target: Phosphatidylinositol 5-phosphate 4-kinase type-2 gamma (Homo sapiens) (UniProt Q8TBX8)
[29] = molecular target: Calcium/calmodulin-dependent protein kinase type II subunit gamma (Homo sapiens) (UniProt Q13555)
[30] = molecular target: Serine/threonine-protein kinase 33 (Homo sapiens) (UniProt Q9BYT3)
[31] = molecular target: Ribosomal protein S6 kinase beta-1 (Homo sapiens) (UniProt P23443)
[32] = molecular target: Rho-associated protein kinase 2 (Homo sapiens) (UniProt O75116)
[33] = molecular target: Serine/threonine-protein kinase BRSK2 (Homo sapiens) (UniProt Q8IWQ3)
[34] = molecular target: Dual specificity tyrosine-phosphorylation-regulated kinase 2 (Homo sapiens) (UniProt Q92630)
[35] = molecular target: Homeodomain-interacting protein kinase 1 (Homo sapiens) (UniProt Q86Z02)
[36] = molecular target: Mast/stem cell growth factor receptor Kit (Homo sapiens) (UniProt P10721)
[37] = molecular target: Serine/threonine-protein kinase Nek3 (Homo sapiens) (UniProt P51956)
[38] = molecular target: Protein kinase C theta type (Homo sapiens) (UniProt Q04759)
[39] = molecular target: Serine/threonine-protein kinase SIK3 (Homo sapiens) (UniProt Q9Y2K2)
[40] = molecular target: Mitogen-activated protein kinase 3 (Homo sapiens) (UniProt P27361)
[41] = molecular target: Tyrosine-protein kinase JAK2 (Homo sapiens) (UniProt O60674)
[42] = molecular target: Ephrin type-A receptor 6 (Homo sapiens) (UniProt Q9UF33)
[43] = test system: Tyrosine-protein kinase ABL1 (Homo sapiens), P00519 [T315I]
[44] = molecular target: Ribosomal protein S6 kinase alpha-3 (Homo sapiens) (UniProt P51812)
[45] = molecular target: Glycogen synthase kinase-3 alpha (Homo sapiens) (UniProt P49840)

Activated CDC42 kinase 1 (Homo sapiens), sequence (Q07912 whole entry, looked up): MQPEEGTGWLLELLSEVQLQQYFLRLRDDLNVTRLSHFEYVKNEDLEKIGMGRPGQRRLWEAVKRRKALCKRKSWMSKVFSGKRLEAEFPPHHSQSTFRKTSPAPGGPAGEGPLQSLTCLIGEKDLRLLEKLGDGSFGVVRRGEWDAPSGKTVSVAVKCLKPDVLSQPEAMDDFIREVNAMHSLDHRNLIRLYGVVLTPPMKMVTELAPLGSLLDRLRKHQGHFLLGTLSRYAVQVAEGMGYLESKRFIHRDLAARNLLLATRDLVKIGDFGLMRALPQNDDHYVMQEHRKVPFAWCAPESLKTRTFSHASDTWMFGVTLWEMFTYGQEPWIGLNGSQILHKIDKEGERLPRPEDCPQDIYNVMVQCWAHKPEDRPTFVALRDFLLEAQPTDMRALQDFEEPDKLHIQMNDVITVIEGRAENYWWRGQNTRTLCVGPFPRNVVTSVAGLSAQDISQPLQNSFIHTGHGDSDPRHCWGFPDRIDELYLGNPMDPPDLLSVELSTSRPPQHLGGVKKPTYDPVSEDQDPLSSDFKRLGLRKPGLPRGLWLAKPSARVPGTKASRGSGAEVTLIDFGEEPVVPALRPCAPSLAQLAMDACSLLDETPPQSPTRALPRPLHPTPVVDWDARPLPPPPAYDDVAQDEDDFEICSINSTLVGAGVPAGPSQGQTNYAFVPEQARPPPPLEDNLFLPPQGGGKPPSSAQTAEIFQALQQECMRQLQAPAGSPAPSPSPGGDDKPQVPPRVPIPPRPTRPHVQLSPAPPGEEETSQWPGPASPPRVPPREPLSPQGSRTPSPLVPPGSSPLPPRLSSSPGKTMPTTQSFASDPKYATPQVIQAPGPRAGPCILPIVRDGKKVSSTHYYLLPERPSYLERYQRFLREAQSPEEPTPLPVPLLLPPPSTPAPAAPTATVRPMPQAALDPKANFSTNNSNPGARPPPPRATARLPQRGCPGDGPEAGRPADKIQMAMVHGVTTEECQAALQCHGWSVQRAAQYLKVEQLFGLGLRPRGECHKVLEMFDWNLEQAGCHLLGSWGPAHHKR
Ribosomal protein S6 kinase beta-1 (Homo sapiens), sequence (P23443 whole entry, looked up): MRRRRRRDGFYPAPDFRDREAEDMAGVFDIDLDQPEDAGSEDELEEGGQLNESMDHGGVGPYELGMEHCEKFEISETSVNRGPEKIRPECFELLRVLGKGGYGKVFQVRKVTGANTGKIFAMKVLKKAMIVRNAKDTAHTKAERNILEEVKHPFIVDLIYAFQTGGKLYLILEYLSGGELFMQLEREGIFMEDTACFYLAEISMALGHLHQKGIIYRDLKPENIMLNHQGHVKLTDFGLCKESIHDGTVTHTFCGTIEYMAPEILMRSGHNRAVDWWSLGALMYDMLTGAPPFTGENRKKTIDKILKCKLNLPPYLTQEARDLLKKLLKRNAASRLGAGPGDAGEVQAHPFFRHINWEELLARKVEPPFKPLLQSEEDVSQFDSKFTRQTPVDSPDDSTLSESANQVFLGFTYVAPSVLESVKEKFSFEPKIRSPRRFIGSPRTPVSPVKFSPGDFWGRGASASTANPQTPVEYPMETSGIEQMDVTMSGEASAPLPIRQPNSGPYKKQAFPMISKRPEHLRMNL
Dual specificity mitogen-activated protein kinase kinase 6 (Homo sapiens), sequence (P52564 whole entry, the tested form may be a part): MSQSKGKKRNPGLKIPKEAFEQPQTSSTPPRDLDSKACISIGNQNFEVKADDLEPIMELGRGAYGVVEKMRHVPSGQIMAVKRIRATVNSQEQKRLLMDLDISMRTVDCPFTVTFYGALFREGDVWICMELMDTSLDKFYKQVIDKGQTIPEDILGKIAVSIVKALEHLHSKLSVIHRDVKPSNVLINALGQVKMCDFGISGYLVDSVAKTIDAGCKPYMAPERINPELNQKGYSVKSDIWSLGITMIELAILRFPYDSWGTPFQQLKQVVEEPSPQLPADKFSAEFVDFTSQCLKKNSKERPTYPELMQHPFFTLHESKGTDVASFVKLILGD
Ribosomal protein S6 kinase alpha-4 (Homo sapiens), sequence (O75676 whole entry, looked up): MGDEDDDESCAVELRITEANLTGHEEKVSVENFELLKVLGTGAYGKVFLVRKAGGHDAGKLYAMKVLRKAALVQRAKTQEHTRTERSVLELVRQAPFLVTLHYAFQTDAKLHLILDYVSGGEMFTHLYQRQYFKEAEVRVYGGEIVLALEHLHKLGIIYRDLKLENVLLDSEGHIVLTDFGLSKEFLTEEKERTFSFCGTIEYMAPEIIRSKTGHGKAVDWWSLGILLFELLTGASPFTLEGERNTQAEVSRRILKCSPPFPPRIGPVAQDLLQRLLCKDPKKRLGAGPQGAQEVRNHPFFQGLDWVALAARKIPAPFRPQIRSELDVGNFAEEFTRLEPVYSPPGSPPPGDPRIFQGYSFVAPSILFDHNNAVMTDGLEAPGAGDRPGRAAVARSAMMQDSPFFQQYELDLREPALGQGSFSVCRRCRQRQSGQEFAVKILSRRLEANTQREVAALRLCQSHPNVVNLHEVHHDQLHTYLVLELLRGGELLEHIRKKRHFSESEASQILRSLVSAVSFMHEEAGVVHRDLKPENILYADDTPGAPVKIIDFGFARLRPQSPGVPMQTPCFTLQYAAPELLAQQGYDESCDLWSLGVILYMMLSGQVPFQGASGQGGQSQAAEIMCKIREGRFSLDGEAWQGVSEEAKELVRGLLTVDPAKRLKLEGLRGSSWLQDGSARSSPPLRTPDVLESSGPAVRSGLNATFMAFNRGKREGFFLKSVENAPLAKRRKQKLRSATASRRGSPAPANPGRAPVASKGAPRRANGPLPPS
Serine/threonine-protein kinase SIK3 (Homo sapiens), sequence (Q9Y2K2 whole entry, looked up): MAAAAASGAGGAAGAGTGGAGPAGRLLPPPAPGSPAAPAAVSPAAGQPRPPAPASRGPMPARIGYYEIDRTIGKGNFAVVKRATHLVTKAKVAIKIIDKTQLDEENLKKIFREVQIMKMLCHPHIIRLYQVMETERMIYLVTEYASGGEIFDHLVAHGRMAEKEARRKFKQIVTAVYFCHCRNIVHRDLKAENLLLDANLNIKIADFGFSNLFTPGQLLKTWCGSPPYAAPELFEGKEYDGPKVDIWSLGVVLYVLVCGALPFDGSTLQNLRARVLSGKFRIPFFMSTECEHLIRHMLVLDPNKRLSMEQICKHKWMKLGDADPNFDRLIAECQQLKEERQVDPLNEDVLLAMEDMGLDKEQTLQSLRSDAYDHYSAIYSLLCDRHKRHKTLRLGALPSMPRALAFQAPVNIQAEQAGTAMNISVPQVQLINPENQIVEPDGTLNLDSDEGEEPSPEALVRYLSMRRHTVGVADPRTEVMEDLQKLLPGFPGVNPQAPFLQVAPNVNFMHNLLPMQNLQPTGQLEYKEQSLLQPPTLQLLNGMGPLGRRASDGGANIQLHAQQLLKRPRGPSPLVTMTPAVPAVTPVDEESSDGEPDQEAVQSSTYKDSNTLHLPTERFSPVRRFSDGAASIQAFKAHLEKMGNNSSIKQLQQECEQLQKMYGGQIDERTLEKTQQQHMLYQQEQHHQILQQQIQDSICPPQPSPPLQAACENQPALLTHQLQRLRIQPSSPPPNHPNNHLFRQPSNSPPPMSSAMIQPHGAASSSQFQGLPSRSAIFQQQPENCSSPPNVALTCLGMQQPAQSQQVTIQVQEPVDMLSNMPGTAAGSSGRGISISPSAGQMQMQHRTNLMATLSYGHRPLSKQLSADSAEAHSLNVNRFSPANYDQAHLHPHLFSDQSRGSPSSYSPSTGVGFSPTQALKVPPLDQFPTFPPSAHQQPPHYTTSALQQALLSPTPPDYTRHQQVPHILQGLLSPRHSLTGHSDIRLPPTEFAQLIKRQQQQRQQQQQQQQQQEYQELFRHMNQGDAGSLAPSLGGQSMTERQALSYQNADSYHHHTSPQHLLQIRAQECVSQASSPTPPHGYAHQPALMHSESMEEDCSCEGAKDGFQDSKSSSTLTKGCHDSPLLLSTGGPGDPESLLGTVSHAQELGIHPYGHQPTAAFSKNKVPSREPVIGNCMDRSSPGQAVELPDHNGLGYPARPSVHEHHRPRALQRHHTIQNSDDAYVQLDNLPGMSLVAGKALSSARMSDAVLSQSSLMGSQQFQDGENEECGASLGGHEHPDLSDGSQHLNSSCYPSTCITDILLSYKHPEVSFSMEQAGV
Mitogen-activated protein kinase 4 (Homo sapiens), sequence (P31152 whole entry, canonical isoform): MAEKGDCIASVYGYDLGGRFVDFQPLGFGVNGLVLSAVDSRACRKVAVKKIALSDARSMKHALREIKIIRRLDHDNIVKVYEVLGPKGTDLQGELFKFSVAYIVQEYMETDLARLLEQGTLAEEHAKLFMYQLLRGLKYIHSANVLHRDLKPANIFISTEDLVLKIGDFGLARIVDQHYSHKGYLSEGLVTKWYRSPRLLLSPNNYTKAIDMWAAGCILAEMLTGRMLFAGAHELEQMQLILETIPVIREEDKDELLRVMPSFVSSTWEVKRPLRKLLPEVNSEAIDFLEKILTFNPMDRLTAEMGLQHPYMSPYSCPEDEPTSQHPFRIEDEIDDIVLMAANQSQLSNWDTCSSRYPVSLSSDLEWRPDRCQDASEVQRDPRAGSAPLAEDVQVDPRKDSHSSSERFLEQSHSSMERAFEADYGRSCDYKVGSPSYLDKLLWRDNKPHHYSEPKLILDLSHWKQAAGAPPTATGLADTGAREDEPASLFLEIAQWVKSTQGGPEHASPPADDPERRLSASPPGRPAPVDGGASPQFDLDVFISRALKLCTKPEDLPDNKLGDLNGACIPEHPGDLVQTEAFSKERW
Serine/threonine-protein kinase STK11 (Homo sapiens), sequence (Q15831 whole entry): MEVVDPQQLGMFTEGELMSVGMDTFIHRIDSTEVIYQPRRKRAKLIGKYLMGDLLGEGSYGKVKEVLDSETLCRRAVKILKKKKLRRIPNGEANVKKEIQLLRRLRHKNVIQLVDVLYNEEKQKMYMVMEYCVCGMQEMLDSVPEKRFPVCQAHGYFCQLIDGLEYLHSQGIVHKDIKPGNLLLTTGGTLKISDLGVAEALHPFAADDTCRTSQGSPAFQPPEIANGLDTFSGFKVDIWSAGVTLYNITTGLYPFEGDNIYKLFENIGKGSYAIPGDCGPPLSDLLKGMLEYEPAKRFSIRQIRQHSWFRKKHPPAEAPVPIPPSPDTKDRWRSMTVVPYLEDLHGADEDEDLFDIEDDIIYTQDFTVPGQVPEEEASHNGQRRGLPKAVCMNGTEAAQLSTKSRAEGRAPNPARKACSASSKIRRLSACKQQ

CSc1cccnc1N1CCN(Cc2nc3ccccc3[nH]2)CC1 [A-769]
residual activity [1]: 100%
residual activity [2]: 94%
residual activity [3]: 73%
residual activity [4]: 46%
residual activity [5]: 100%
residual activity [6]: 100%
residual activity [7]: 100%
residual activity [8]: 100%
residual activity [9]: 95%
residual activity [10]: 100%
residual activity [11]: 100%
residual activity [12]: 74%
residual activity [13]: 90%
residual activity [14]: 100%
residual activity [15]: 100%
residual activity [16]: 100%
residual activity [17]: 94%
residual activity [18]: 75%
residual activity [19]: 100%
residual activity [20]: 100%
residual activity [21]: 100%
residual activity [22]: 79%
residual activity [23]: 100%
residual activity [24]: 76%
residual activity [25]: 69%
residual activity [26]: 100%
residual activity [27]: 93%
residual activity [28]: 81%
residual activity [29]: 100%
residual activity [30]: 91%
residual activity [31]: 87%
residual activity [32]: 74%
residual activity [33]: 100%
residual activity [34]: 81%
residual activity [35]: 78%
residual activity [36]: 72%
residual activity [37]: 88%
residual activity [38]: 100%
residual activity [39]: 100%
residual activity [40]: 99%
residual activity [41]: 65%
residual activity [42]: 100%
residual activity [43]: 93%
residual activity [44]: 83%
residual activity [45]: 100%

c1ccc(N2CCN(Cc3nc4ccccc4[nH]3)CC2)nc1 [ABT-724]
residual activity [1]: 100%
residual activity [2]: 100%
residual activity [3]: 100%
residual activity [4]: 100%
residual activity [5]: 100%
residual activity [6]: 100%
residual activity [7]: 100%
residual activity [8]: 100%
residual activity [9]: 100%
residual activity [10]: 74%
residual activity [11]: 57%
residual activity [12]: 100%
residual activity [13]: 91%
residual activity [14]: 100%
residual activity [15]: 100%
residual activity [16]: 100%
residual activity [17]: 87%
residual activity [18]: 100%
residual activity [19]: 100%
residual activity [20]: 70%
residual activity [21]: 91%
residual activity [22]: 100%
residual activity [23]: 100%
residual activity [24]: 100%
residual activity [25]: 100%
residual activity [26]: 100%
residual activity [27]: 90%
residual activity [28]: 86%
residual activity [29]: 100%
residual activity [30]: 97%
residual activity [31]: 97%
residual activity [32]: 100%
residual activity [33]: 100%
residual activity [34]: 100%
residual activity [35]: 99%
residual activity [36]: 100%
residual activity [37]: 100%
residual activity [38]: 98%
residual activity [39]: 91%
residual activity [40]: 100%
residual activity [41]: 100%
residual activity [42]: 100%
residual activity [43]: 100%
residual activity [44]: 100%
residual activity [45]: 66%
